# From ChEMBL document CHEMBL5390316, “Enniatin A Analogues as Novel Hsp90 Inhibitors that Modulate Triple-Negative Breast Cancer” (ACS Med Chem Lett, 2023)
# pIC50: −log10 of the molar value. Active and inactive are the calls of the source. The rule behind the calls is not given here.
# How the values were obtained:
# E0771 [1] = assay: In vivo inhibition of HSP90 in mouse E0771 cells implanted in C57BL/6 mouse assessed as change in p-Akt/Akt ratio at 10 mg/kg, ip administered every 48 hrs for 3 weeks by Western blot analysis; assay type: functional, organism-based
# 4T1 [2] = assay: Inhibition of HSP90 in mouse 4T1 cells assessed as reduction in CDK4 level at 7.5 uM incubated for 24 hrs by Western blot analysis; assay type: cell-based
# Hs-578T [3] = assay: Antiproliferative activity against human Hs-578T cells assessed as reduction in cell viability incubated for 48 hrs by MTT assay; assay type: functional, cell-based
# [4] = target: Heat shock protein HSP90 (Homo sapiens) (UniProt P07900+P08238); assay: Inhibition of HSP90 in human Hs-578T cells assessed as degradation of CDK4 at 5 uM incubated for 24 hrs by Western blot analysis; assay type: cell-based
# Hs-578T [5] = assay: Induction of heat shock response in human Hs-578T cells assessed as change in Hsp40 level at 5 uM incubated for 24 hrs by Western blot analysis; assay type: functional, cell-based
# Hs-578T [6] = assay: Induction of heat shock response in human Hs-578T cells assessed as change in Hsp70 level at 5 uM incubated for 24 hrs by Western blot analysis; assay type: functional, cell-based
# EO771 [7] = assay: Inhibition of HSP90 in mouse EO771 cells assessed as change in CDK4 level at 7.5 uM incubated for 24 hrs by Western blot analysis; assay type: cell-based
# EO771 [8] = assay: Inhibition of HSP90 in mouse EO771 cells assessed as change in ILK level at 7.5 uM incubated for 24 hrs by Western blot analysis; assay type: cell-based
# EO771 [9] = assay: Induction of heat shock response in mouse EO771 cells assessed as change in Hsp70 level at 7.5 uM incubated for 24 hrs by Western blot analysis; assay type: functional, cell-based
# 4T1 [10] = assay: Inhibition of HSP90 in mouse 4T1 cells assessed as reduction in ILK level at 7.5 uM incubated for 24 hrs by Western blot analysis; assay type: cell-based
# 4T1 [11] = assay: Induction of heat shock response in mouse 4T1 cells assessed as change in Hsp70 level at 7.5 uM incubated for 24 hrs by Western blot analysis; assay type: functional, cell-based
# EO771 [12] = assay: Antiproliferative activity against mouse E0771 cells implanted in C57BL/6 mouse assessed as inhibition of tumor volume at 10 mg/kg, ip administered every 48 hrs for 3 weeks; assay type: functional, organism-based
# E0771 [13] = assay: In vivo inhibition of HSP90 in mouse E0771 cells implanted in C57BL/6 mouse assessed as change in CDK4 at 10 mg/kg, ip administered every 48 hrs for 3 weeks by Western blot analysis; assay type: functional, organism-based
# E0771 [14] = assay: In vivo inhibition of HSP90 in mouse E0771 cells implanted in C57BL/6 mouse assessed as change in ILK at 10 mg/kg, ip administered every 48 hrs for 3 weeks by Western blot analysis; assay type: functional, organism-based
# E0771 [15] = assay: In vivo induction of heat shock response in mouse E0771 cells implanted in C57BL/6 mouse assessed as increased Hsp40 level at 10 mg/kg, ip administered every 48 hrs for 3 weeks by Western blot analysis; assay type: functional, organism-based
# E0771 [16] = assay: In vivo induction of heat shock response in mouse E0771 cells implanted in C57BL/6 mouse assessed as increased Hsp70 level at 10 mg/kg, ip administered every 48 hrs for 3 weeks by Western blot analysis; assay type: functional, organism-based
# E0771 [17] = assay: In vivo inhibition of HSP90 in mouse E0771 cells implanted in C57BL/6 mouse at 10 mg/kg, ip administered every 48 hrs for 3 weeks by Western blot analysis; assay type: functional, organism-based
# Hs-578T [18] = assay: Induction of heat shock response in human Hs-578T cells assessed as reduction in Hsp40 level at 1 uM incubated for 24 hrs by Western blot analysis; assay type: functional, cell-based
# Hs-578T [19] = assay: Induction of heat shock response in human Hs-578T cells assessed as reduction in Hsp70 level at 1 uM incubated for 24 hrs by Western blot analysis; assay type: functional, cell-based
smiles,measurement,setting,value
CC[C@H](C)[C@H]1C(=O)O[C@H](C(C)C)C(=O)N(C)[C@@H]([C@@H](C)CC)C(=O)O[C@H](C(C)C)C(=O)N(C)[C@@H]([C@@H](C)CC)C(=O)O[C@H](Cc2ccccc2)C(=O)N1C,inhibition,E0771 [1],Active
same,inhibition,4T1 [2],Active
same,pIC50,Hs-578T [3],5.36
same,inhibition,[4],Active
same,Activity,Hs-578T [5],inactive
same,Activity,Hs-578T [6],inactive
same,inhibition,EO771 [7],inactive
same,inhibition,EO771 [8],inactive
same,Activity,EO771 [9],inactive
same,inhibition,4T1 [10],Active
same,Activity,4T1 [11],inactive
same,Activity,EO771 [12],Active
same,inhibition,E0771 [13],Active
same,inhibition,E0771 [14],Active
same,Activity,E0771 [15],Active
same,Activity,E0771 [16],Active
same,inhibition,E0771 [17],inactive
CC[C@H](C)[C@H]1C(=O)O[C@H](C(C)C)C(=O)N(C)[C@@H](C)C(=O)O[C@H](C(C)C)C(=O)N(C)[C@@H]([C@@H](C)CC)C(=O)O[C@H](C(C)C)C(=O)N1C,pIC50,Hs-578T [3],4.79
CC[C@H](C)[C@H]1C(=O)O[C@H](C(C)C)C(=O)N(C)[C@@H]([C@@H](C)CC)C(=O)O[C@H](C(C)C)C(=O)N(C)CC(=O)O[C@H](C(C)C)C(=O)N1C,pIC50,Hs-578T [3],4.78
CC[C@H](C)[C@H]1C(=O)O[C@H](C(C)C)C(=O)N(C)[C@@H]([C@@H](C)CC)C(=O)O[C@H](C(C)C)C(=O)N(C)[C@@H]([C@@H](C)CC)C(=O)O[C@H](CCc2ccccc2)C(=O)N1C,pIC50,Hs-578T [3],5.09
CC[C@H](C)[C@H]1C(=O)O[C@H](C(C)C)C(=O)N(C)[C@@H]([C@@H](C)CC)C(=O)O[C@H](C(C)C)C(=O)N(C)[C@@H]([C@@H](C)CC)C(=O)O[C@H](C)C(=O)N1C,pIC50,Hs-578T [3],4.89
CC[C@H](C)[C@H]1C(=O)O[C@H](C(C)C)C(=O)N(C)[C@@H]([C@@H](C)CC)C(=O)O[C@H](C(C)C)C(=O)N(C)[C@@H]([C@@H](C)CC)C(=O)O[C@H](Cc2ccc3ccccc3c2)C(=O)N1C,pIC50,Hs-578T [3],5.10
CC[C@H](C)[C@H]1C(=O)O[C@H](C(C)C)C(=O)N(C)[C@@H](Cc2ccccc2)C(=O)O[C@H](C(C)C)C(=O)N(C)[C@@H]([C@@H](C)CC)C(=O)O[C@H](C(C)C)C(=O)N1C,pIC50,Hs-578T [3],5.10
same,inhibition,[4],Active
same,Activity,Hs-578T [5],inactive
same,Activity,Hs-578T [6],inactive
CC[C@H](C)[C@H]1C(=O)O[C@H](C(C)C)C(=O)N(C)[C@@H]([C@@H](C)CC)C(=O)O[C@H](C(C)C)C(=O)N(C)[C@@H]([C@@H](C)CC)C(=O)O[C@H](C(C)C)C(=O)N1C,inhibition,E0771 [1],Active
same,inhibition,4T1 [2],Active
same,pIC50,Hs-578T [3],5.13
same,inhibition,[4],Active
same,Activity,Hs-578T [5],inactive
same,Activity,Hs-578T [6],inactive
same,inhibition,EO771 [7],inactive
same,inhibition,EO771 [8],inactive
same,Activity,EO771 [9],inactive
same,inhibition,4T1 [10],Active
same,Activity,4T1 [11],inactive
same,Activity,EO771 [12],Active
same,inhibition,E0771 [13],Active
same,inhibition,E0771 [14],Active
same,inhibition,E0771 [17],inactive
CC[C@H](C)[C@H]1C(=O)O[C@H](C(C)C)C(=O)N(C)[C@@H]([C@@H](C)CC)C(=O)O[C@H](C(C)C)C(=O)N(C)[C@@H]([C@@H](C)CC)C(=O)O[C@H](Cc2ccc(C)cc2)C(=O)N1C,pIC50,Hs-578T [3],5.08
CC[C@H](C)[C@H]1C(=O)O[C@H](C(C)C)C(=O)N(C)[C@@H]([C@@H](C)CC)C(=O)O[C@H](C(C)C)C(=O)N(C)[C@@H]([C@@H](C)CC)C(=O)OCC(=O)N1C,pIC50,Hs-578T [3],4.80
C=CCNC1=C2C[C@@H](C)C[C@H](OC)[C@H](O)[C@@H](C)/C=C(\C)[C@H](OC(N)=O)[C@@H](OC)/C=C\C=C(/C)C(=O)NC(=CC1=O)C2=O,Activity,Hs-578T [18],Active
same,Activity,Hs-578T [19],Active
